The results in this text go back to patent publication US20090012140A1, “Preparation of Telmisartan Salts with Improved Solubility” (LEK PHARMACEUTICALS D.D, priority 2004, published 2009).

Series [1] is described as follows: Amount dissolved after 30 minutes at 37° C. (50 mg of compound in 100 ml baker, stirring at 600/min). It is filed as physicochemical. Conditions: for C30 min: 30 minutes, 37° C., 600/min; for Solubility compared with sodium salt of telmisartan manufactured by lyophilization: comparison in words. On the procedure: (§1) In order to prepare a pharmaceutical composition physical properties were measured. The solubility of the telmisartan of its salt in accordance with our invention surpasses the solubility of known forms of telmisartan, and are above 10 μg/ml in phosphate buffer pH=6.8 and above 50 μg/ml in a physiologically relevant medium if measured as above. […] The salts are also very soluble in water (i.e dissolving approximately 500 mg/mL of Na salt Form 2 produces a very viscous solution, which can hardly be stirred with a magnetic stirrer.

Another series can be described thus: Solubility in water. It is filed as physicochemical. Conditions: produces a very viscous solution. How it is done: as §1
Setting [2] is: medium pH = 1.2, 50 mg in 100 ml.
[3] abbreviates: phosphate buffer pH = 6.8, 50 mg in 100 ml.
[4] abbreviates: physiologically relevant medium: phosphate buffer pH 6.76 + sodium taurocholate (2.5 mM) + lecitin (0.5 mM).

Where only a bound is given, the exact number is not on record here.

As to `CCCc1nc2c(C)cc(-c3nc4ccccc4n3C)cc2n1Cc1ccc(-c2ccccc2C(=O)[O-])cc1.[Na+]` [Amorphous Na salt of telmisartan, Na Salt of Telmisartan], the C30 min stood at 394.6 µg/mL in series [1] (setting [2]), 29 µg/mL in series [1] (setting [3]) and 167.3 µg/mL in series [1] (setting [4]).

In the case of `CCCc1nc2c(C)cc(-c3nc4ccccc4n3C)cc2n1Cc1ccc(-c2ccccc2C(=O)[O-])cc1.[Na+]`, the “Solubility compared with sodium salt of telmisartan manufactured by lyophilization” value in series [1] is given as “substantially surpasses that manufactured by lyophilization”.

As to `CCCc1nc2c(C)cc(-c3nc4ccccc4n3C)cc2n1Cc1ccc(-c2ccccc2C(=O)[O-])cc1.[Na+]` [Na salt Form 2, Crystalline Na Salt of Telmisartane Form 2], the “Solubility compared with sodium salt of telmisartan manufactured by lyophilization” value in series [1] (listed as crystalline sodium salt of telmisartan) is “surpasses that of the sodium salt of telmisartan manufactured by lyophilization”. Besides, the “Amount dissolving in water” value in “Solubility in water” is reported as “approximately 500 mg/mL”.

Consider `CCCc1nc2c(C)cc(-c3nc4ccccc4n3C)cc2n1Cc1ccc(-c2ccccc2C(=O)O)cc1` [Form A, telmisartan], for which the results for the C30 min in series [1] (setting [2]), in series [1] (setting [3]) and in series [1] (setting [4]) were >500 µg/mL, 0.9 µg/mL and 1.1 µg/mL, respectively.

In the case of `CCCc1nc2c(C)cc(-c3nc4ccccc4n3C)cc2n1Cc1ccc(-c2ccccc2C(=O)O)cc1` [Amorphous telmisartan, telmisartan], the C30 min in series [1] (setting [3]) was determined as 17.6 µg/mL; in series [1] (setting [4]) it was 87.5 µg/mL.
